{
  "source": "patent US7217409B2",
  "about": "“Alkanoic acid derivatives” (SmithKline Beecham Corporation, priority 2000, dated 2007)",
  "key": {"[1]": {"assay": "Emitted dose and fine particle mass by Anderson Cascade Impactor stack", "assay_type": "physicochemical", "conditions": "salmeterol xinafoate in HFA 134a, 25 μg per actuation, 10% w/w surfactant compound, aluminum canisters; beginning of use; mean of two determinations", "method": "Data were obtained at the beginning of use of the device. Salmeterol xinafoate formulations in HFA 134a, of strength 25 μg per actuation, and 10% w/w (relative to drug) of the relevant surfactant compound of formula (I) were prepared in standard aluminum canisters. Control 1 was prepared at the same time as samples containing examples 2, 5, 6 and 7 whereas control 2 was prepared separately. The analysis of aerosol formulations using such stacks is well known to person skilled in the art. The results are presented as the mean of two determinations.\nThese samples also show an increase in the absolute value of the FPM fraction in most cases."}, "[2]": {"assay": "Mean particle size of salmeterol xinafoate/HFA 134a suspension by image analysis (Galai CIS-100 particle size analyser)", "assay_type": "physicochemical", "conditions": "for spread of the range of particles size: salmeterol xinafoate in HFA 134a with 10% w/w surfactant compound, versus control without surfactant; for Mean Length: salmeterol xinafoate in HFA 134a, 25 μg per actuation, 10% w/w (relative to drug) of surfactant compound, crimped glass bottles, equivalent diameter, average of 4 determinations", "method": "Salmeterol xinafoate formulations in HFA 134a, of strength 25 μg per actuation, and 10% w/w (relative to drug) of the relevant surfactant compound of formula (I) were prepared in crimped glass bottles using salmeterol xinafoate (8.7 mg), HFA 134a (18 g) and the relevant compound (0.87 mg). The control was prepared without the addition of a surfactant. […] In this measurement, particle size is represented as the equivalent diameter of a circle of equal area to the object. The mean is the average of 4 determinations. The particle size measurement was obtained by transferring the suspensions to a pressurised cell, and video-imaging the sample under shear via a microscope objective. The equivalent diameter is defined as the diameter of a circle of equal area to the object.\nThe mean equivalent diameter can be weighted by number, length or volume. e.g. For three particles with equivalent diameters of x, y and z:\nThis is seen by the marked reduction in average particle size (“mean length”) when a compound of formula (I) is incorporated into the formulation. Futhermore the spread of the range of particles size was reduced in some cases (especially Examples 5 and 7)."}},
  "data": [
    {"smiles": "O=C(O)COCCOCCOCCOCCOCCOCCOCC(F)(F)F", "note": "[Example 5, 23,23,23-Trifluoro-3,6,9,12,15,18,21-heptaoxatricosan-1-oic acid]", "values": [
      {"measurement": "% FPM", "setting": "[1]", "value": 37.2, "unit": "%"},
      {"measurement": "FPM (fine particle mass, sum of stages 3 to 5)", "setting": "[1]", "value": 8.6, "unit": "µg"},
      {"measurement": "Total Dose Emitted", "setting": "[1]", "value": 23.0, "unit": "µg"},
      {"measurement": "Total Emitted Ex-Device", "setting": "[1]", "value": 19.4, "unit": "µg"},
      {"measurement": "spread of the range of particles size", "setting": "[2]", "value": "reduced"},
      {"measurement": "Mean Length", "setting": "[2]", "value": 23.8, "unit": "μm"}
    ]},
    {"smiles": "COCCOCCOCCOCCOCCOCCOCC(=O)O", "note": "[Example 2, 2,5,8,11,14,17,20-Heptaoxadocosan-22-oic acid]", "values": [
      {"measurement": "% FPM", "setting": "[1]", "value": 38.8, "unit": "%"},
      {"measurement": "FPM (fine particle mass, sum of stages 3 to 5)", "setting": "[1]", "value": 8.7, "unit": "µg"},
      {"measurement": "Total Dose Emitted", "setting": "[1]", "value": 22.4, "unit": "µg"},
      {"measurement": "Total Emitted Ex-Device", "setting": "[1]", "value": 18.8, "unit": "µg"},
      {"measurement": "Mean Length", "setting": "[2]", "value": 27.1, "unit": "μm"}
    ]},
    {"smiles": "O=C(O)COCCOCCOCC(F)(F)F", "note": "[Example 6, {[2-({2-[(2,2,2-Trifluoroethyl)oxy]ethyl}oxy)ethyl]oxy}acetic acid]", "values": [
      {"measurement": "% FPM", "setting": "[1]", "value": 33.2, "unit": "%"},
      {"measurement": "FPM (fine particle mass, sum of stages 3 to 5)", "setting": "[1]", "value": 7.1, "unit": "µg"},
      {"measurement": "Total Dose Emitted", "setting": "[1]", "value": 21.4, "unit": "µg"},
      {"measurement": "Total Emitted Ex-Device", "setting": "[1]", "value": 17.9, "unit": "µg"},
      {"measurement": "Mean Length", "setting": "[2]", "value": 23.7, "unit": "μm"}
    ]},
    {"smiles": "COCCOCCOCCOCCOCCOCCOCCOCCOCCOCC(=O)O", "note": "[Example 7, 2,5,8,11,14,17,20,23,26,29-Decaoxahentriacontan-31-oic acid]", "values": [
      {"measurement": "% FPM", "setting": "[1]", "value": 38.7, "unit": "%"},
      {"measurement": "FPM (fine particle mass, sum of stages 3 to 5)", "setting": "[1]", "value": 8.5, "unit": "µg"},
      {"measurement": "Total Dose Emitted", "setting": "[1]", "value": 21.9, "unit": "µg"},
      {"measurement": "Total Emitted Ex-Device", "setting": "[1]", "value": 18.4, "unit": "µg"},
      {"measurement": "spread of the range of particles size", "setting": "[2]", "value": "reduced"},
      {"measurement": "Mean Length", "setting": "[2]", "value": 28.6, "unit": "μm"}
    ]}
  ]
}
